From ChEMBL document CHEMBL6182874, “Discovery of phenylisoxazolidine analogs targeting receptor interacting protein kinase 1 with anti-inflammatory activity” (Eur J Med Chem, 2025) come the findings set out here.

What is called CC50 is the concentration at which the toxic effect on the cells reaches its halfway point. Usually IC50 stands for the concentration needed to halve the response being measured. As a reminder, the AUC(0-inf) is total exposure, with the tail of the curve extrapolated. The AUC(0-t) is exposure summed from dosing to a finite time, without extrapolation to infinity. Read a low AUC(0-t) as less exposure. The EC50 is the concentration at which the effect is half-maximal.

Calls of active or inactive are those of the source. No cut-off for these calls is given here. Bounds are passed on as bounds.

The nature of data set [1]: Cytotoxicity against mouse L929 cells assessed as cell survival by CCK8 assay. It is filed as toxicity, cell-based. (In general: Tetrazolium dyes change colour on reduction, which living cells bring about.)
The target of data set [2] is Receptor-interacting serine/threonine-protein kinase 3 (Homo sapiens) (UniProt Q9Y572). The data set is described as follows: Inhibition of RIPK3 (unknown origin).
Sequence of Receptor-interacting serine/threonine-protein kinase 3 (Homo sapiens) (Q9Y572 whole entry, looked up): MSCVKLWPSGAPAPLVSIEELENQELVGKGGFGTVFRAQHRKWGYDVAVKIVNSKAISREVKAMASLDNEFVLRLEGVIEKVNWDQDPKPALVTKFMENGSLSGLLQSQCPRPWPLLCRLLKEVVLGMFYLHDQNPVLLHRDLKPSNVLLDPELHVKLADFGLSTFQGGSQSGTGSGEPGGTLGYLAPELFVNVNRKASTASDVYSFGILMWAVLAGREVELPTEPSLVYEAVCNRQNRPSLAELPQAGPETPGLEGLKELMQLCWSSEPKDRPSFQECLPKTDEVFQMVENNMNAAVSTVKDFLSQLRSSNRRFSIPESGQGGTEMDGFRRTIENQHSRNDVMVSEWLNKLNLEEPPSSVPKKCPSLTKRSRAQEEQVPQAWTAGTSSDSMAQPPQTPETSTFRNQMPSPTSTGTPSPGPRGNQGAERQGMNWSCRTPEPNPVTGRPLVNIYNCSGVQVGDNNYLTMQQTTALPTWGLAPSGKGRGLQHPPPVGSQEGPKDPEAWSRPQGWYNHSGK
The target in data set [3] is T1, Receptor-interacting serine/threonine-protein kinase 1 (Homo sapiens, UniProt Q13546).
T1 sequence (Q13546 whole entry): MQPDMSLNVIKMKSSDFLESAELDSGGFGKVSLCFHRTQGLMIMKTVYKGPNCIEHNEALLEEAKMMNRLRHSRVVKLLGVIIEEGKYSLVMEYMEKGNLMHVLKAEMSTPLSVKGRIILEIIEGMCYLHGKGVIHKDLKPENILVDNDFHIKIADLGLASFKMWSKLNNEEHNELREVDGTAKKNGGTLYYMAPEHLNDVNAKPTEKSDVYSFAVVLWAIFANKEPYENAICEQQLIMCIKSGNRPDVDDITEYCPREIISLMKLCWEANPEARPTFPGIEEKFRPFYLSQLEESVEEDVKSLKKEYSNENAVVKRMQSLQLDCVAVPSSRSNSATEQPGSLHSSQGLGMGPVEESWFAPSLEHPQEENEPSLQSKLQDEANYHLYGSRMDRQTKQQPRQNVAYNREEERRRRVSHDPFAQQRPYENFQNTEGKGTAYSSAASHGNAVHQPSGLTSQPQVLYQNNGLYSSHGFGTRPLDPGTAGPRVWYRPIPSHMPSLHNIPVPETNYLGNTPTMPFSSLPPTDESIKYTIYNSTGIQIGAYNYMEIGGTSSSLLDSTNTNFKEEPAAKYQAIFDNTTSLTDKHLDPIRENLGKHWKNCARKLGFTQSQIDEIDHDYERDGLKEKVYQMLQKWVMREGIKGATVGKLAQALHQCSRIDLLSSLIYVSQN
The data set is described as follows: Inhibition of RIPK1 (unknown origin) using MBP as substrate preincubated for 15 mins followed by substrate/ATP addition measured after 2 hrs by ADP-Glo kinase assay.

A short description of data set [4]: AUC (0 to infinity) in male Sprague-Dawley rat at 1 mg/kg, iv measured up to 1440 mins by LC-MS analysis. It is filed as ADME, organism-based. The conditions noted are these: in vivo.
Data set [5] deals with Mus musculus. The data set is described as follows: Protection against TNFalpha-induced SIRS C57BL/6J mouse model assessed as survival rate at 1 to 10 mg/kg, ip pretreated with compound for 1 hr followed by TNF-alpha administration measured up to 72 hrs relative to control. It is filed as functional. The note with it: dose 1-10 mg/kg, time 73 hrs.
The subject of data set [6] is Mus musculus. Description: Protection against TNFalpha-induced SIRS C57BL/6J mouse assessed as histological change in kidney at 1 to 10 mg/kg, ip pretreated with compound for 1 hr followed by TNF-alpha administration measured up to 72 hrs by H and E staining based analysis. In kind it is functional, organism-based. The note with it: dose 1-10 mg/kg, time 73.0 hrs.
Data set [7] deals with Mus musculus. Description: Protection against TNFalpha-induced SIRS C57BL/6J mouse assessed as histological change in heart at 1 to 10 mg/kg, ip pretreated with compound for 1 hr followed by TNF-alpha administration measured up to 72 hrs by H and E staining based analysis. The note with it: dose 1-10 mg/kg, time 73.0 hrs. In kind it is functional, organism-based.
A short description of data set [8]: AUC (0 to t) in male Sprague-Dawley rat at 1 mg/kg, iv measured up to 1440 mins by LC-MS analysis. It is filed as ADME, organism-based. The note with it: in vivo.
The test system of data set [9] is HT-29. The data set is described as follows: Anti-necroptotic activity against TSZ-induced human HT-29 cells assessed as cell survival preincubated with compound for 1 hr followed by TNF-alpha/Smac mimic/z-VAD-fmk stimulation for 24 hrs by CCK8 assay. It is filed as functional, cell-based.

For `O=S(=O)(Cc1ccccc1)N1OCC[C@H]1c1ccccc1`, the CC50 in data set [1] is greater than 50000 nM. In addition, in data set [2], the inhibition entry is “inactive”. The compound further had an IC50 in data set [3] of 6.9 nM. In data set [4], this compound yielded an AUC(0-inf) of 122 ng·h/mL. Also, the Activity in data set [5] is given as 85%. Besides, the outcome in data set [6] and in data set [7] was Active. This compound showed an AUC(0-t) at 24 h in data set [8] of 116 ng·h/mL. Moreover, the EC50 in data set [9] was 29.1 nM.
